Assay results published in patent US10245271B2, “Treatment of impaired cognitive flexibility with TrkB receptor antagonists” (Florida State University Research Foundation, Inc., priority 2015, dated 2019).
Entries after “also recorded” stand apart in the source; their conditions may differ.

Legend:
[1] = target: TrkC (Homo sapiens, UniProt Q16288); conditions: cited from earlier work
[2] = system: prenatally cocaine-exposed mice; assay: Olfactory (odor) reversal learning, go no-go olfactometer paradigm; assay type: in vivo, mouse (Swiss Webster)
Procedure: Swiss Webster mice were housed in a temperature and humidity controlled environment on a 12 hr light/dark cycle with food and water available ad libitum were bred to obtain timed pregnancies.
Singly housed dams received twice daily (7 AM and 7 PM) subcutaneous injections of cocaine (20 mg/kg/injection: total daily dose=40 mg/kg/day) or saline (same volume and time of administration as the cocaine injection) from the 8th day of pregnancy until the day of birth. The period of cocaine exposure corresponds to mid-first trimester of human pregnancies.
(§1) Olfactometry: Reversal learning was assayed in an automated olfactometer based on odor learning and detection using water as reward (41, 42). Briefly, odorants were presented via an 8-channel liquid dilution computerized olfactometer (Knosys LD8-1, Tampa, Fla.) so that odorant threshold determinations were automated and stimulus concentration, timing of onset and offset, and stimulus control of behavior could be controlled reliably. We modified our Knosys system to provide additional mechanical dampening of the solenoid pinch valves to permit incorporation of materials for mounting the machine in-line with sterilization of the olfactometer.
The Knosys olfactometer employs operant conditioning in the form of both positive and negative reinforcements. Positive reinforcement is used when pairing an odorant with water reward (S+). A 10-second time out or negative reinforcement occurs as a result of a mouse responding to a negative cue or diluent (S−). Mice were therefore trained in a classical “go no-go” operant conditioning paradigm to recognize an odorant.
Operant training: Mice were water-deprived to 85% of their baseline bodyweight to motivate them for a water reward. Operant training was performed using a step-wise battery of tasks that began with reward reinforcement for learning to lick a water delivery tube and snout insertion into the odor sampling port. Mice advanced to the next stage after 30 reinforcements. Next, mice were reinforced for lick decisions paired with a positively entrained odor (S+). They were required to nose poke for an extended period of time to sample an odor prior to receiving water reinforcement.
During the go no-go operant training mice inserted their snout into the odor sampling port to initiate a trial and waited until the odor stimulus was presented. […] The mice were rewarded for lick decisions paired with a positively entrained odor (S+) and also for correct rejections paired with a negatively entrained odor (S−). This establishes the “go no-go” reward criteria. The percentage of correct responses per trial was determined by the formula: % correct responses=[(HITs+Correct Rejections)/20]×100, where a HIT is defined as a criterion response in the presence of S+, and a Correct Rejection (CR) is a failure to make a criterion response in the presence of […] 20 represents the number of trials per block.
Odor Reversal Learning: Once mice achieved criteria performance on the two-odor discrimination testing for a week, mice underwent an odor-reversal learning paradigm. Here mice were introduced to the switch (reversal) of the S+ for the S− stimulus where the previously rewarded odor stimulus now lacked the water reward and the previously unrewarded odor stimulus was now paired with the water reward.
The scent stimuli used were 5% Ethyl Acetate (EA) and 1% Acetophenone (AP).
Upon successful completion of the training phase and odor discrimination phase a subset of mice were randomly assigned to the ANA-12 injection group. ANA-12 (Sigma Aldrich, St. Louis, Mo.; SML0209) was administered twice daily [0.5 mg/kg; 1.0 mg/kg/day intraperitoneal (i.p.)] for 13 consecutive days. ANA-12 was dissolved in 100% DMSO (stock), and diluted further such that the final concentration of DMSO administered to the mice was 1%. On days 8-10 of the injection period, the mice were water deprived (to 85% of pre-deprivation weight). […]

[3] = target: TrkA (Homo sapiens, UniProt P04629); conditions: cited from earlier work
Sequence of TrkA (P04629 33-796, species assumed): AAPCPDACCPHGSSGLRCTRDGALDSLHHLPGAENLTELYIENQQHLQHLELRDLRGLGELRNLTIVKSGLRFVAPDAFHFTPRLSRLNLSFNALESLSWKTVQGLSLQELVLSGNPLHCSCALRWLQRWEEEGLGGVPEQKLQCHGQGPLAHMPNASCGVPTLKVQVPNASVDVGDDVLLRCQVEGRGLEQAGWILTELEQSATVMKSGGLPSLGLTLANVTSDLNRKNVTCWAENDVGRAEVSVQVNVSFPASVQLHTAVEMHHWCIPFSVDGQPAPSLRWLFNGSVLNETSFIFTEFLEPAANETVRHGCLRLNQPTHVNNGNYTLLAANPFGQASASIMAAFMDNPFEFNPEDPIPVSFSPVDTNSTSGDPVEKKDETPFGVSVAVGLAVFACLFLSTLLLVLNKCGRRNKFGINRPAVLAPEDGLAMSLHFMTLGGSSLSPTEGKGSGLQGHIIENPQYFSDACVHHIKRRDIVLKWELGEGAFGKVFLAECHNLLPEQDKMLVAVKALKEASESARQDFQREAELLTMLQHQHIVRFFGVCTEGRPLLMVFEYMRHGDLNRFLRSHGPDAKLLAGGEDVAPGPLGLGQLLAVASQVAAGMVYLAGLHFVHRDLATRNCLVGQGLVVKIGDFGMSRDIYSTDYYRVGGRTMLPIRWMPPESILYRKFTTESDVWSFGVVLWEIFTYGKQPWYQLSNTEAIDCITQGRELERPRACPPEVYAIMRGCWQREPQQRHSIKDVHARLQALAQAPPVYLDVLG

[4] = system: mice; conditions: mice dosed with ANA-12; Cazorla et al., J. Clin. Invest. 121(5), 1846-57 (2011); cited from earlier work
[5] = system: prenatally cocaine-exposed mice; assay: Odor versus odor discrimination (two-odor discrimination testing); assay type: in vivo, mouse (Swiss Webster); conditions: ANA-12 i.p. twice a day, 1 mg/kg/day; data not shown
Procedure: as §1
During the go no-go operant training mice inserted their snout into the odor sampling port to initiate a trial and waited until the odor stimulus was presented. […] The mice were rewarded for lick decisions paired with a positively entrained odor (S+) and also for correct rejections paired with a negatively entrained odor (S−). This establishes the “go no-go” reward criteria. The percentage of correct responses per trial was determined by the formula: % correct responses=[(HITs+Correct Rejections)/20]×100, where a HIT is defined as a criterion response in the presence of S+, and a Correct Rejection (CR) is a failure to make a criterion response in the presence of […] 20 represents the number of trials per block. […]

Sequence of TrkC (Q16288 32-839, species assumed): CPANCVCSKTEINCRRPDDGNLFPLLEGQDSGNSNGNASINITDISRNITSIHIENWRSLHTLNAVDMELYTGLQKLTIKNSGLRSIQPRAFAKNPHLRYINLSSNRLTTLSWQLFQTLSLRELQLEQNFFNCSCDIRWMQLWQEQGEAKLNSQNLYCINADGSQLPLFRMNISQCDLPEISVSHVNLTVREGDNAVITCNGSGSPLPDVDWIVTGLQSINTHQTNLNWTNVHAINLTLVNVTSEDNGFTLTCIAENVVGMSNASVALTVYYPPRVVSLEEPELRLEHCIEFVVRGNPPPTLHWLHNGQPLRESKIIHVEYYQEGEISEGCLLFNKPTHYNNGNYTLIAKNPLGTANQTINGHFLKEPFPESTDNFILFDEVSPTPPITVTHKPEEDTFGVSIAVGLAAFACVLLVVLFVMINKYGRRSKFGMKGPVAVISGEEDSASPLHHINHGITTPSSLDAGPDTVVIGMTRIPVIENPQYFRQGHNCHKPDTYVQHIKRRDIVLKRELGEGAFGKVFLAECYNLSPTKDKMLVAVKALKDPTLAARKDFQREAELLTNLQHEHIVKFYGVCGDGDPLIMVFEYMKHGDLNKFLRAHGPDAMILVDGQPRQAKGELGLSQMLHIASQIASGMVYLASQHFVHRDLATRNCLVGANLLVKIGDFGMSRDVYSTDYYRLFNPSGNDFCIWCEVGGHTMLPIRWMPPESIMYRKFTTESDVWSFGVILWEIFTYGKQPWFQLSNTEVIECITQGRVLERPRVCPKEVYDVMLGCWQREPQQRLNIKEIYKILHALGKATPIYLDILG

In the case of O=C(Nc1ccccc1C(=O)NC1CCCCNC1=O)c1cc2ccccc2s1 (stereo not shown) [ANA-12, N-[2-[[(Hexahydro-2-oxo-1H-azepin-3-yl)amino]carbonyl]phenyl]-benzo[b]thiophene-2-carboxamide], the “effect on TrkC functions” value [1] is listed as “without substantially altering”, the “performance in the reversal paradigm” value ([2]; ANA-12 treated prenatally cocaine-exposed mice vs prenatally cocaine-exposed mice, i.p. 1 mg/kg/day, 13 days, 1 mg/kg/day) is listed as “performed better; also recorded: significant improvement in performance” and the “cognitive flexibility of treated subjects” value ([2]; ANA-12 treatment, summary statement) is listed as “a statistically significant number of subjects tested showed improved cognitive flexibility”. The “Number of trials to reach criteria (≥80%), Mean±SEM” value ([2]; Cocaine+ANA12 group, i.p. 1 mg/kg/day, 13 days) was 255.0±9.6, the “difference in number of trials to reach criteria vs saline-exposed mice” value ([2]; Mann-Whitney's U test, saline vs cocaine+ANA-12, p>0.05) was “no significant difference” and the “time course of reversal learning vs saline-exposed mice” value ([2]; Student's t-test, p>0.05) was “not significantly different”. The “median number of trials needed to reach criteria following reversal of the odors” value ([2]; cocaine+ANA-12 group) was 290, the “mean rank, Mann-Whitney's U test, number of trials to reach criteria” value ([2]; cocaine+ANA-12 group vs saline (U=3.5, p>0.05)) was 22.5 and the “% correct responses in reversal learning, post-hoc Bonferroni comparison cocaine versus cocaine+ANA-12” value ([2]; day 2 (blocks 11-20), t=3.557, df=124, p<0.01, FIG. 2A) was “significant difference”. The “percentage of mice that reached criteria (at least 80% correct) over the two days” value ([2]; prenatally cocaine-exposed mice injected with ANA-12, FIG. 2B) was 57%, the “effect on TrkA functions” value [3] was “without substantially altering” and the “anxiety- and depression-related behaviors” value [4] was “reduced anxiety- and depression-related behaviors”. For the same compound, the “correct hits in odor versus odor discrimination” value [5] was over 80%.
